Data on one molecule can be found in the NIST ThermoML archive (doi:10.1021/je900599q).

Numbers after ± are expanded uncertainties.

For this data set the following is noted: 298.2 K; 101.33 kPa; Liquid; Pycnometric method.

Turning to `CO` [methanol], the mass density (commonly the mass of a sample divided by its volume) worked out at 796 ± 1 kg/m3.
